ChEMBL document CHEMBL1124434, “2H-[1]benzopyrano[3,4-b]pyridines: synthesis and activity at central monoamine receptors” (J Med Chem, 1989)

How the values were obtained:
[1] = molecular target: T1, Alpha-2A adrenergic receptor (Bos taurus) (UniProt Q28838); assay: Concentration necessary to achieve half maximal inhibition of [3H]clonidine binding to alpha-2 adrenergic receptorat 1 uM
T1 sequence (whole entry): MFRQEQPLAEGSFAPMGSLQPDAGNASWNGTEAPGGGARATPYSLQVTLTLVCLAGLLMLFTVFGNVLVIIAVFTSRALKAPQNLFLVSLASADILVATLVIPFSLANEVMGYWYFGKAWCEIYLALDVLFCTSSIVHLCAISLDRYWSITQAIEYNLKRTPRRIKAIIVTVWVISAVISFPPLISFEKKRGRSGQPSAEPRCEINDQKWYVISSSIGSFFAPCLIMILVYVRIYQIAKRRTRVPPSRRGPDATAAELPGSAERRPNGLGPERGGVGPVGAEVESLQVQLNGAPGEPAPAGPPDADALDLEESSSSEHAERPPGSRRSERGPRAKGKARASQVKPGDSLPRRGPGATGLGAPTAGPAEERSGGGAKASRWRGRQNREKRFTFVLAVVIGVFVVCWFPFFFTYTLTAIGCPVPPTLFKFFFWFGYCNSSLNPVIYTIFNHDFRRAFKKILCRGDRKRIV

[2] = molecular target: T2, Dopamine receptor (Bos taurus) (UniProt Q95136+P20288); assay: (§1) Concentration necessary to achieve half maximal inhibition of [3H](+)-[…]-6,7-dihydroxy-1,2,3,4-tetrahydronaphthalene binding to dopamine receptor at 1 uM; type: protein assay
[3] = molecular target: T3, 5-hydroxytryptamine receptor 1A (Rattus norvegicus, UniProt P19327); assay: (§2) Concentration necessary to achieve half maximal inhibition of [3H]8-Hydroxy-2-(di-n-propylamino)tetralin binding to 5-hydroxytryptamine 1A receptor at 1 uM
T3 sequence (P19327 whole entry): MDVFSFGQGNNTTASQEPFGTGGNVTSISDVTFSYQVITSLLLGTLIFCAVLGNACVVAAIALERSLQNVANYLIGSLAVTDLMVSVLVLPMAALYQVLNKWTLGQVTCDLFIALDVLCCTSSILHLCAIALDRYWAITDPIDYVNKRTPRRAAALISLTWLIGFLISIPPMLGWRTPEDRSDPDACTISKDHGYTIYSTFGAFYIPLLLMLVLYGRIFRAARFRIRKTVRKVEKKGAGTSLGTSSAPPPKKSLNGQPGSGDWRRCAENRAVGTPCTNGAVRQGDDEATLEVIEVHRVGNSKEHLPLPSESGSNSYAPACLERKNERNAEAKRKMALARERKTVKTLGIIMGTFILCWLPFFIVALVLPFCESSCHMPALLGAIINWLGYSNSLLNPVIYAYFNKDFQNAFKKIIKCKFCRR

[4] = molecular target: 5-hydroxytryptamine receptor 1B (Rattus norvegicus) (UniProt P28564); assay: (§3) Concentration necessary to achieve half maximal inhibition of [125I]- Iodocyanopindolol binding to 5-hydroxytryptamine 1B receptor at 1 uM
5-hydroxytryptamine receptor 1B (Rattus norvegicus), sequence (P28564 whole entry): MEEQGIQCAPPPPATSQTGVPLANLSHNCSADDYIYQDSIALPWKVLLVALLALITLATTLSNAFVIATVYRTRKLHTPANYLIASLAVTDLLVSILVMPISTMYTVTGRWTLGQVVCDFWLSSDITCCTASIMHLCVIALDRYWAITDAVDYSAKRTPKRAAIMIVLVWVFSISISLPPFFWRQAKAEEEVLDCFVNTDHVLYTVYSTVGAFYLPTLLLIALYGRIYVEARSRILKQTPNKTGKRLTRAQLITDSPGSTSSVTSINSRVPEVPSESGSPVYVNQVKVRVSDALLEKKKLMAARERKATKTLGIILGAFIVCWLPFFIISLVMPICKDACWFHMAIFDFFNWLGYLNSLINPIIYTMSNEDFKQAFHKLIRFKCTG

[5] = molecular target: T4, Serotonin 2 (5-HT2) receptor (Rattus norvegicus, UniProt P30994+P08909+P14842); assay: (§4) Concentration necessary to achieve half maximal inhibition of [3H]ketanserin binding to 5-hydroxytryptamine 2 receptor at 1 uM; type: protein assay
[6] = molecular target: T2, Dopamine receptor (Bos taurus); assay: (§5) Concentration necessary to achieve half maximal inhibition of [3H]spiperone binding dopamine receptor at 1 uM; type: protein assay
[7] = molecular target: T5, 5-hydroxytryptamine receptor 1B (Rattus norvegicus, UniProt P28564); assay: as §3
T5 sequence (P28564 whole entry): as above

[8] = molecular target: T6, Alpha-2A adrenergic receptor (Bos taurus, UniProt Q28838); assay: Concentration necessary to achieve half maximal inhibition of [3H]clonidine binding to alpha-2 adrenergic receptor at 1 uM
T6 sequence (Q28838 whole entry): T1 sequence (whole entry)

[9] = molecular target: T4, Serotonin 2 (5-HT2) receptor; assay: (§6) Concentration necessary to achieve half maximal inhibition of [3H]ketanserin, binds to 5-hydroxytryptamine 2 receptor at 1 uM; type: protein assay
[10] = molecular target: T5, 5-hydroxytryptamine receptor 1B; assay: Concentration necessary to achieve half maximal inhibition of [125I]- Iodocyanopindolol, binds to 5-hydroxytryptamine 1B receptor at 1 uM
[11] = molecular target: T6, Alpha-2A adrenergic receptor
Description: Concentration necessary to achieve half maximal inhibition of [3H]clonidine binding to Alpha-2 adrenergic receptor at 1 uM

[12] = molecular target: T7, Serotonin 2 (5-HT2) receptor (Rattus norvegicus) (UniProt P30994+P08909+P14842); assay: as §4; type: protein assay
T7 sequence (P08909 whole entry, looked up): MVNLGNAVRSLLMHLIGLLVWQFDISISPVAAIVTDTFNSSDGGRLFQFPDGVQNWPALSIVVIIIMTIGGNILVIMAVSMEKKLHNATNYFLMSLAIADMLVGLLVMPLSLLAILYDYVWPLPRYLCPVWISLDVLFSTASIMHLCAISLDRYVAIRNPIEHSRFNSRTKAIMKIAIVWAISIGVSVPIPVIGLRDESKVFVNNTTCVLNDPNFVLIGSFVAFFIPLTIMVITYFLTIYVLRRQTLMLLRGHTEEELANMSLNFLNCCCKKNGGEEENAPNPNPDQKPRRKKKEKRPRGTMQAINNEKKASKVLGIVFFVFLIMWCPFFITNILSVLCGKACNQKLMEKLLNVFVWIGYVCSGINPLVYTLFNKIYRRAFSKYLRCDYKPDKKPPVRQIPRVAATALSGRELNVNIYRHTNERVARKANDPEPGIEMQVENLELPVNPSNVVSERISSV
T7 sequence (P14842 whole entry, looked up): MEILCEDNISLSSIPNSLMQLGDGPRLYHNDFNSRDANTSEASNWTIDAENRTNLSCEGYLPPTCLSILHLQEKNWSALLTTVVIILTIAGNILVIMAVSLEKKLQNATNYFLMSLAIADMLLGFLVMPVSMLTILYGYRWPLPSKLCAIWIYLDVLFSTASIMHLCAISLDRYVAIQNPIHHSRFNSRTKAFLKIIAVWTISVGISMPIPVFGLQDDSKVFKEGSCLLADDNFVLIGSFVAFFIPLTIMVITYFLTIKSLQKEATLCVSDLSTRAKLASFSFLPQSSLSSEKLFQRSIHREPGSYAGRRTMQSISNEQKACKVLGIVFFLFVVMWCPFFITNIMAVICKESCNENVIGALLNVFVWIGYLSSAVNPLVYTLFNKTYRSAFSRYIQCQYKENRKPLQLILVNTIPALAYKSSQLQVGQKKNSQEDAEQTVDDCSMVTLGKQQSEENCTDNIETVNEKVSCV
T7 sequence (P30994 whole entry, looked up): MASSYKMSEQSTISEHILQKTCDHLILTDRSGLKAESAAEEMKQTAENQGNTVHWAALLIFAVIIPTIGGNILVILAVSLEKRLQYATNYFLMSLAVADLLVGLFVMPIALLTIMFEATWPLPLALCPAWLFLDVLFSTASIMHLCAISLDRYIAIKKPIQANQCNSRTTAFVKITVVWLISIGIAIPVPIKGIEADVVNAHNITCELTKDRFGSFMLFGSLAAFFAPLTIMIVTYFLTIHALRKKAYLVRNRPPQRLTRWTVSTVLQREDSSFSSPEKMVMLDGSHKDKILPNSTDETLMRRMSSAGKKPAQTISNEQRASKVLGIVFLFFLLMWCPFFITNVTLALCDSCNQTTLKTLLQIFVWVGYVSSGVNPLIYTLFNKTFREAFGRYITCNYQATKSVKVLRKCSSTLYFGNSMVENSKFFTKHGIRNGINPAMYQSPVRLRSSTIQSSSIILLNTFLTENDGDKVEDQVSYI

[13] = molecular target: T8, Dopamine receptor (Bos taurus, UniProt Q95136+P20288); assay: as §5; type: protein assay
[14] = molecular target: T8, Dopamine receptor; assay: as §1; type: protein assay
[15] = molecular target: T9, 5-hydroxytryptamine receptor 1A (Rattus norvegicus) (UniProt P19327); assay: as §2
T9 sequence (whole entry): T3 sequence (P19327 whole entry)

[16] = molecular target: T4, Serotonin 2 (5-HT2) receptor; assay: Concentration necessary to achieve half maximal inhibition of [3H]-ketanserin binding to 5-hydroxytryptamine 2 receptor; type: protein assay
[17] = molecular target: T7, Serotonin 2 (5-HT2) receptor (Rattus norvegicus); assay: as §6; type: protein assay

Structure (SMILES) | Change [2] [%] | IC50 [3] [µM] | IC50 [5] [µM] | Change [6] [%] | Change [4] [%] | IC50 [8] [µM] | Change [12] [%] | IC50 [13] [µM] | IC50 [14] [µM] | other results
COc1cccc2c1OC[C@@H]1[C@@H]2CCCN1C | -23 | 0.253 | 0.92 | -22 |  |  |  |  |  | Change [1]: -24%; inhibition [4]: 7%
FC(F)(F)c1cccc(N2CCNCC2)c1 |  |  |  |  |  |  |  |  |  | IC50 [7]: 0.051 µM
CCCN1CCC[C@@H]2c3c(O)cccc3OC[C@H]21 | -12 | 0.004 | 0.384 | -23 | -4 | 0.362 |  |  |  | 
CCCN1CCC=C2c3c(OC)cccc3OCC21 (stereo unspecified) | -13 | 0.0018 |  | -36 |  | 0.151 |  |  |  | IC50 [9]: 0.839 µM; IC50 [10]: 1.32 µM
CCCN1CCC[C@@H]2c3c(OC)cccc3OC[C@H]21 | -9 | 0.009 | 0.114 | -53 | -19 | 0.071 |  |  |  | 
Clc1cccc(Cl)c1N=C1NCCN1 [CLONIDINE] |  |  |  |  |  |  |  |  |  | IC50 [11]: 0.002 µM
CN(C)CCCSc1ccccc1NC(=O)/C=C/c1ccccc1 [CINANSERIN] |  |  | 0.002 |  |  |  |  |  |  | 
COc1cc(C)cc2c1[C@H]1CCCN(C)[C@@H]1CO2 | -11 | 0.075 | 0.042 | -39 |  | 0.946 |  |  |  | IC50 [7]: 0.825 µM
COc1ccc(C)c2c1OC[C@@H]1[C@@H]2CCCN1C | -6 | 0.019 |  | -15 | -35 |  | -44 |  |  | Change [1]: -12%
CCCN1CCC=C2c3ccccc3OCC21 (stereo unspecified) | -15 | 0.074 |  | -13 | -11 | 0.208 | -22 |  |  | 
CCCN1CCC[C@@H]2c3ccc(O)cc3OC[C@H]21 |  |  |  |  | -1 | 0.249 | -14 | 4.83 | 0.016 | Change [15]: -17%
CN1CCC[C@@H]2c3cccc(O)c3OC[C@H]21 |  |  | 1.26 | -46 | -2 |  |  |  | 0.011 | Change [1]: -41%; Change [15]: -45%
Cc1ccc(O)c2c1[C@H]1CCCN(C)[C@@H]1CO2 |  | 0.076 |  |  | -10 | 1.02 |  | 0.17 | 0.026 | IC50 [16]: 0.097 µM
CCCCN1CCC[C@@H]2c3cccc(O)c3OC[C@H]21 |  | 1.2 |  |  | 0 | 0.039 |  | 0.26 | 0.008 | Change [17]: -40%
CCCN1CCC[C@@H]2c3c(OC)cc(C)cc3OC[C@H]21 | -15 | 0.186 |  | -36 | -31 | 0.504 |  |  |  | IC50 [9]: 0.086 µM
CCCN1CCC[C@@H]2c3cccc(O)c3OC[C@H]21 |  | 1 | 1.1 |  | -2 | 0.077 |  | 0.26 | 0.03 | 
CN1CCC=C2c3cc(O)ccc3OCC21 (stereo unspecified) |  |  |  |  | -6 |  | -32 |  | 0.02 | Change [15]: -42%; inhibition [6]: 3%
CCCN1CCC[C@@H]2c3cc(O)ccc3OC[C@H]21 |  | 1.21 |  |  | -1 | 0.559 | -30 | 1.26 | 0.009 | 
CCCN1CCC=C2c3cccc(O)c3OCC21 (stereo unspecified) | -10 |  |  | -17 | -1 |  | -14 |  |  | Change [1]: -34%; Change [15]: -36%
CCCN1CCC[C@@H]2c3ccccc3OC[C@H]21 | -24 | 0.219 |  | -19 | -10 | 0.088 |  |  |  | IC50 [9]: 0.178 µM
CCCN1CCC=C2c3cc(O)ccc3OCC21 (stereo unspecified) |  | 0.244 |  |  | 0 | 0.634 | -14 | 4.19 | 0.051 | 
CN1CCC[C@@H]2c3cc(O)ccc3OC[C@H]21 |  |  |  |  | 6 |  | -27 | 4.08 | 0.114 | Change [1]: -64%; Change [15]: -13%
